Marks after values point to notes of the source that are not given here.
Experiments:
[1] = system: early AD patients and early PD patients; experiment: Phase 2a double-blind, placebo-controlled study in early AD and early PD patients; format: in vivo, human
[2] = system: patients with mild to moderate AD; experiment: Randomized, double-blind, placebo-controlled Phase II/III study in mild to moderate AD (NCT05686044); format: in vivo, human
Procedure: A randomized, double-blind, placebo-controlled Phase II/III study trial investigating the efficacy, safety, and tolerability of buntanetap in patients with mild to moderate AD was conducted. This was a dose-ranging study where patients received either one of three doses of buntanetap (7.5 mg, 15 mg, or 30 mg) or placebo on top of their standard of care for 12 weeks. In this study, over 700 patients were screened, a total of 353 patients were enrolled, and 325 patients completed the study across 54 sites in the US. The study included mild to moderate AD patients whose Mini Mental State Examination (MMSE) scores at baseline ranged from 14 to 24. (www.clinicaltrials.gov (NCT05686044)).
Beyond safety, the trial assessed the changes in two co-primary endpoints: Alzheimer's Disease Assessment Scale-Cognitive Subscale 11 (ADAS-Cog 11) and Alzheimer's Disease Cooperative Study Clinician's Global Impression of Change (ADCS-CGIC), which assess cognition and activities of daily living. The study monitored for safety and collected plasma to measure several biomarkers to assess the disease state, potential disease progression, and treatment effects.

[3] = system: mouse hippocampal slices perfused with 200 nM oligomeric Aβ; experiment: Electrophysiological analysis (LTP, CA1 fEPSP) of hippocampal slices perfused with oligomeric Aβ; format: cell-based, C57BI6 mice; conditions: for Aβ-induced LTP defect: 200 nM oligomeric Aβ
Procedure: Animals: C57BI6 mice of both sexes were used for these experiments. They were obtained by a breeding colony maintained at the animal facility of Columbia University.
Aβ was prepared as previously described (Stine at al, J Biol Chem. 2003).
Electrophysiological Analysis was performed on […] hippocampal slices, cut with a tissue chopper and maintained in an interface chamber at 29° C. for 90 min prior to recording. Briefly, CA1 fEPSPs were recorded by placing both the stimulating and the recording electrodes in CA1 stratum radiatum. Basal synaptic transmission was assayed, either by plotting the stimulus voltages against slopes of fEPSP, or by plotting the peak amplitude of the fiber volley against the slope of the fEPSP. A 10 min baseline was recorded every min at an intensity that evokes a response, ˜35% of the maximum evoked response in the presence of vehicle. Then slices were either perfused with 200 nM oligomeric Aβ or vehicle with or without compound for 20 min prior to applying a theta burst stimulation (4 pulses at 100 Hz, with the bursts repeated at 5 Hz and each tetanus including 3 ten-burst trains separated by 15 sec). Data was subjected to statistical analyses to determine the effects of combination on inhibiting synaptic dysfunction.
Slices were coded to blind investigators with respect to treatment. Results were expressed with Standard Error of the Mean (SEM). Level of significance was set for p<0.05. Results were analyzed by ANOVA analysis with post-hoc correction.

APP [4] = experiment: APP in vitro, Western blot in SH-SY-5Y human neuroblastoma cells; format: cell-based; conditions: SH-SY-5Y cells, 0, 0.1, 1, 5 and 10 μM
Description: (§1) Buntanetap's effect on neurotoxic proteins.

APP and its fragments [5] = experiment: APP in vivo: APP/PS1 transgenic AD mice, hippocampus
Description: as §1
FIG. 2A, APP in vivo. […] GAPDH and Synaptophysin were loading controls. FIG. 2 also includes a collection of graphs showing relative density of APP plotted against control and time after buntanetap treatment; relative density of CTFβ plotted against control and time after buntanetap treatment; relative density of CTFα plotted against control and time after buntanetap treatment; Aβ42 levels in brain tissue plotted against control and time after buntanetap treatment; and Aβ40 levels in brain tissue plotted against control and time after buntanetap treatment. Finally, FIG. 2 also includes a Western blot showing levels of APP, NSB, CTFβ, and CTFα after buntanetap treatment over time (minutes).

[6] = cited from earlier work
[7] = system: APP, Tau, and αSYN in the cerebrospinal fluid (CSF); conditions: cited from earlier work
[8] = system: early AD patients and early PD patients; conditions: cited from earlier work
APP [9] = conditions: literature report; cited from earlier work
APP and its fragments [10] = conditions: APP/PS1 transgenic mice, literature report; cited from earlier work
tau [11] = conditions: unpublished observation, Peter Davies Laboratory; cited from earlier work
tau [12] = conditions: Human tau mice, unpublished observation; cited from earlier work
αSYN [13] = conditions: neuroblastoma cells; cited from earlier work
αSYN [14] = conditions: transgenic Parkinson's animals, brain and gut; cited from earlier work
[15] = system: human SNCAA53T tg mouse model of PD; conditions: cited from earlier work
[16] = system: APP/PS1 transgenic (tg) mouse model of AD; conditions: cited from earlier work
[17] = system: Ts65dn mouse model of Down syndrome (DS); conditions: cited from earlier work
rat acute glaucoma model = conditions: cited from earlier work
[18] = system: traumatic brain injury rats; conditions: cited from earlier work
[19] = system: fully differentiated Down syndrome nerve cells; conditions: cited from earlier work
clinical = conditions: human, brain (relative to plasma)
[20] = system: APP, Tau, and αSYN in the cerebrospinal fluid (CSF); experiment: Study of MCI subjects: CSF and plasma markers before and after 10 days of buntanetap (proof of mechanism); conditions: 4×60 mg/day
[21] = in vivo; cited from earlier work
[22] = 3 phase 3 clinical studies, failed; cited from earlier work

With CN1CC[C@]2(C)c3cc(OC(=O)Nc4ccccc4)ccc3N(C)C12 (single isomer, unassigned) [buntanetap] the “axonal and synaptic function” value ([1]; AD and PD patients) was “improved”, the “blood brain barrier passage” value ([1]; AD and PD patients) was “crossed the blood brain barrier” and the inflammatory markers ([1]; AD and PD patients) was “reduced”. For the same compound, the neurotoxic protein biomarkers ([1]; AD and PD patients) was “reduced”, the “cognition as measured by ADAS-Cog11 and WAIS coding speed” value ([1]; AD patients, 80 mg QD, significant versus baseline) was “improved” and the “motor function as measured by MDS-UPDRS (Part II, III, IV and total)” value ([1]; PD patients, all doses 5-80 mg QD, maximum improvement for 10 & 20 mg) was “improved”. The “WAIS speed and accuracy” value ([1]; PD patients, significant versus placebo at 5 mg, 20 mg and 80 mg) was “improved”, the “Non-Responders (Number)” value ([2]; 7.5 mg) was 5 and the “Non-Responders (Percentage)” value ([2]; 7.5 mg) was “(26.32%)”. For the same compound, the “Responders (Number)” value ([2]; 7.5 mg) was 14, the “Responders (Percentage)” value ([2]; 7.5 mg) was “(73.68%)**” and the “Non-Responders (Number)” value ([2]; 15 mg) was 7. The “Non-Responders (Percentage)” value ([2]; 15 mg) was “(28.00%)”, the “Responders (Number)” value ([2]; 15 mg) was 18 and the “Responders (Percentage)” value ([2]; 15 mg) was “(72.00%)**”. The “Non-Responders (Number)” value ([2]; 30 mg) was 3, the “Non-Responders (Percentage)” value ([2]; 30 mg) was “(12.50%)” and the “Responders (Number)” value ([2]; 30 mg) was 21. For the same compound, the “Responders (Percentage)” value ([2]; 30 mg) was “(87.50%)***”, the “difference in the proportion of participants who improved relative to placebo” value ([2]; 30 mg group) was “three-fold” and the “% Improvement (based on change in Residual Potential; veh minus wt ab = 100%)” value ([3]; ab + buntanetap 1 μM) was 26.7%. The “Residual Potential (mean)” value ([3]; ab + buntanetap 1 μM) was 152.11, the “% Improvement (based on change in Residual Potential; veh minus wt ab = 100%)” value ([3]; ab + buntanetap 10 μM) was 110.7% and the “Residual Potential (mean)” value ([3]; ab + buntanetap 10 μM) was 210.49. The “Aβ-induced LTP defect” value ([3]; buntanetap 1 μM alone) was “did not ameliorate”, the “APP level (Western blot, in relation to Actin standard)” value (APP [4]) was “lowers APP in vitro in a dose-dependent manner” and the “duration of reduction of APP and all related peptides in hippocampus after the last dose” value (APP and its fragments [5]; APP/PS1 mice) was “at least 9 hours”. The “APP and its fragments in hippocampus” value (APP and its fragments [5]; APP/PS1 transgenic AD mice) was “reduced”, the tolerability ([6]; doses up to 4×60 mg daily×10 days) was “well tolerated” and the terminal half-life ([6]; plasma, all doses, cleared biphasically) was 4.3 to 4.7 h. For the same compound, the “duration of effect in lowering neurotoxic proteins and inflammation after the last dose” value ([7]; MCI subjects, CSF, 12 h sampling period) was no less than 12 h, the “CSF Aβ42” value ([7]; MCI subjects) was “trend to lower” and the “CSF levels of sAPPα, sAPPβ, t-tau, p-tau, and specific inflammatory markers” value ([7]; MCI subjects) was “significantly lowered”. The “half-life in CSF” value ([7]; MCI subjects) was greater than 12 h, the inflammation ([7]; human CSF of MCI subjects) was “lowered” and the “levels of neurotoxic proteins and inflammatory factors (biomarker data)” value ([8]; AD and PD cohorts) was “trend in lowering”. For the same compound, the “ADAS-Cog11 and WAIS coding” value ([8]; AD patients) was “statistically significant improvements”, the “MDS-UPDRS and WAIS coding” value ([8]; PD patients) was “statistically significant improvements” and the safety and tolerability ([8]; doses up to 80 mg, AD and PD patients) was “well tolerated”. For the same compound, the “Cmax and AUC” value ([8]; plasma, up to 80 mg QD) was “increased with dose without evidence for a plateau”, the “levels of APP in vitro in neuroblastoma cells” value (APP [9]) was “lowers” and the “levels of APP and all its fragments” value (APP and its fragments [10]) was “lowers”. The tau in vitro (tau [11]) was “lowers”, the tau in vivo (tau [12]) was “lowers” and the αSYN in vitro (αSYN [13]) was “lowers”. The αSYN in vivo (αSYN [14]) was “lowers”, the colonic motility [15] was “Restored” and the memory and learning ([16]; APP/PS1 tg mouse model of AD) was “Restored”. For the same compound, the impaired synaptic transmission ([16]; hippocampus of APP/PS1 tg mice) was “Normalized”, the memory and learning [17] was “Restored” and the retina (rat acute glaucoma model; acute glaucoma) was “Preserved”. For the same compound, the nerve cell protection (rat acute glaucoma model; rat acute glaucoma model) was “protected”, the inflammation ([18]; rat brain after TBI) was “lowered” and the impaired synaptic transmission ([18]; rat striatum after TBI) was “Normalized”. The nerve cell protection ([18]; rat substantia nigra after TBI) was “protected”, the memory and learning ([18]; traumatic brain injury rats) was “Preserved” and the “anterograde and retrograde vesicle transport” value [19] was “Normalized”. The Kp (clinical) was roughly 8 and the “levels of APP, Tau, and αSYN in the cerebrospinal fluid (CSF)” value [20] was “normalized”.

For COc1ccc(CNc2c(CO)cnc3c(C4CC4)cc(C#N)cc23)cc1Cl [7a, 4-[(3-Chloro-4-methoxybenzyl)amino]-8-cyclopropyl-3-(hydroxymethyl) quinoline-6-carbonitrile], the “Aβ-induced LTP defect” value ([3]; 7a 1 nM alone) was “did not ameliorate”, the “% Improvement (based on change in Residual Potential; veh minus wt ab = 100%)” value ([3]; ab + 7a 1 nM) was 14.23% and the “Residual Potential (mean)” value ([3]; ab + 7a 1 nM) was 147.78. The “% Improvement (based on change in Residual Potential; veh minus wt ab = 100%)” value ([3]; ab + 7a 10 nM) was 59.63%, the “Residual Potential (mean)” value ([3]; ab + 7a 10 nM) was 174.99 and the “% Improvement (based on change in Residual Potential; veh minus wt ab = 100%)” value ([3]; ab + 7a 50 nM) was 106.8%. For the same compound, the “Residual Potential (mean)” value ([3]; ab + 7a 50 nM) was 207.77.

For COc1ccc(CN=c2[nH]c(N3CCC[C@H]3CO)ncc2C(=O)NCc2ncccn2)cc1Cl [avanafil], the half-life [21] is given as “about 5 hours”.

For CN1CC[C@@]2(C)c3cc(OC(=O)Nc4ccccc4)ccc3N(C)[C@@H]12 [phenserine, (−)-N-phenylcarbamoyl eseroline], the side effects [22] is listed as “high cholinomimetic side effects”.
